Results published in patent publication US20050032111A1, “Cadherin-11 as an indicator of viable pregnancy” (priority 1997, published 2005).
Several values for one entry are separate records, joined by “and”; a condition that tells them apart may be missing. Equal entries are not always repeated. Entries after “also recorded” stand apart in the source; their conditions may differ. Structures can show the parent of a compound that is named as a salt.

Columns and labels:
[1] = system: cad-11 in the endometrium; test: Cad-11 immunostaining (HSCORE) of endometrial biopsies after treatment; format: in vivo, human; conditions: for AFTER TREATMENT (HSCORE), cad-11 expression in the endometrium: women with primary habitual abortion and LPD, one line per patient 1-8; for effect of treatment on endometrial cad-11 expression: women with LPD-associated habitual abortion, degree of response variable
Description: The intensity of cad-11 immunostaining in the endometrial biopsies may be determined by the semiquantitative HSCORE technique which is routinely used in oncology for cancer cell counts. The HSCORE is a continuous value (from 0-4, respectively), in which a discriminatory level that designates positives and negatives for the test is determined. Typically, a consensus is made between counts carried out by two observers in a blinded fashion employing a double-headed microscope at low and high magnification.
(§1) The presence of cad-11 was examined in endometrial biopsies obtained from women presenting with primary (no prior live birth) habitual abortion in association with luteal phase deficiency (LPD). This group of women, who account for approximately 20% of the women attending the Recurrent Pregnancy Loss Clinic, B.C. Women's Hospital and Health Centre, University of British Columbia, Vancouver, Canada, are routinely treated with progesterone or clomiphene citrate (a nonsteroidal synthetic compound). Biopsy specimens were obtained from these women before and after treatment. Cad-11 expression/production was correlated with pregnancy outcome upon treatment. Present treatment of LPD consists of either vaginal progesterone suppositories or clomiphene citrate, with the dosage being adjusted until a repeat endometrial biopsy is considered to be “in phase” by morphological assessment.
LPD was diagnosed by traditional methods prior to determining cad-11 by immunostaining. To increase the likelihood of including only those individuals with authentic LPD, the criteria for inclusion in this study was two consecutive biopsies with a 3 days of maturation delay based on the first day of the next menses as determined by morphological assessment.
In 16 such patients, cad-11 immunostaining was examined in biopsies obtained before and after treatment with either progesterone (results shown in Table 1A) or clomiphene citrate (results shown in Table 1B). All 16 had return of normal in-phase morphology on subsequent biopsy. The endometrial biopsy specimens were then re-evaluated for cad-11 using immunohistochemical staining. Comparison of staining pattern and intensity was performed using a monoclonal antibody directed against human cadherin-11 and standard immunohistochemical techniques according to the protocol set out in Example 3. The intensity of cad-11 immunostaining in the endometrial biopsies was determined by the semiquantitative HSCORE technique as described above.
For Detection of Cad-11 in Endometrial Biopsy Specimens • Prepare diluent fresh 1% bovine serum albumin (BSA; Sigma Chem Co.)/1% Automation Buffer (AB; ESBE Lab.) (wt/vol).
For paraffin embedded endometrial biopsy specimen sections (5 μm): • 1. Wash tissue specimen thoroughly in phosphate-buffered saline (PBS). • 2. […]

[2] = system: women presenting with primary habitual abortion and diagnosed with luteal phase deficiency; test: Pregnancy outcome upon treatment; format: in vivo, human; conditions: one line per patient 1-8
Source text: as §1
However, different intensities of cad-11 immunostaining in the epithelial and stromal component of the endometrium observed in this cohort of women (HSCORES=0-4: Tables 1A and 1B). […] Conversely, a negative HSCORE (0-1) following treatment correlated with a subsequent pregnancy loss (spontaneous abortion).

cad-11 mRNA = test: Northern blot analysis of cad-11 mRNA in cultured endometrial stromal cells; format: cell-based, human; conditions: for cad-11 mRNA levels: Example 4B, 24 h culture, P4 0.1-1 μM, E2 30 nm; for stromal cad-11 mRNA levels over time: Example 4C, P4 1 μM, E2 30 nM, DHT 0.1 μM, 0-96 h, P4 effect continued to increase until 96 h
Description: (§2) Endometrial stroma cells were isolated from secretory endometrium as described above. The stroma cells were grown to confluence, washed with PBS, and cultured in DMEM containing charcoal stripped FCS for a further 24 h. The culture medium was removed, and after the cells had been washed twice with PBS, replaced with fresh DMEM containing charcoal stripped FCS. The cells were harvested for either Northern (see Example 5) or Western blot analysis (see Example 6) after 24 h of culture in the presence or absence of steroids in the culture medium P4 (0.1-1 μM), E2 (30 nm), or vehicle (0.1% ethanol).
(§3) Endometrial stromal cells were separated from the glandular epithelium by enzymatic digestion and mechanical dissociation as described above. The endometrial stromal cells were washed once in phenol red-free Dulbecco'e Modified Eagle's medium (DMEM) containing 10% charcoal-stripped fetal bovine serum (FBS) before being resuspended and plated in DMEM containing 25 mM glucose, […] L-glutamine, antibiotics (100 U/ml penicillin, 100 μg/ml streptomycin and 2.5 μg/ml fungizone), and supplemented with 30% charcoal-stripped FBS. The culture medium was replaced 30 min after plating in order to reduce epithelial cell contamination. The purity of the cell cultures was determined by immunocytochemical staining for vimentin, cytokeratin, muscle actin, and factor VIII.
(§4) The stromal cells (passage 2) were grown to confluence, washed with PBS, and cultured in phenol, red-free DMEM supplemented with 10% charcoal-stripped FBS is and containing either progesterone (P4 1 μM), 17β-estradiol (E2, 30 nM), the non-aromatisable androgen dihydrotestosterone (DHT, 0.1 μM) or vehicle (0.1% ethanol). The cells were cultured in the presence or absence of the steroids for 0, 6, 12, 24, 48, 72 or 96 h before being harvested for Northern or Western blot analysis as described in Examples 5 and 6 using the probe described in Example 4A.
To standardise the amounts of total RNA, the blots were also probed with a radiolabelled synthetic oligonucleotide specific for 18S rRNA. Radioautograms were scanned using an LKB laser densitometer. The absorbance values obtained for the cad-11 transcripts were normalised relative to the 18S rDNA absorbance value. Statistical differences between time points and treatments were assessed by the analysis of variance (ANOVA). Differences were considered to be significant for p <0.05.
(§5) To determine whether a combination of steroids was required for maximal cad-11 expression in endometrial stromal cells, the cells (prepared as described above) were cultured in the presence of P4 (1 μM) plus E2 (30 nM), or P4 (1 μM) plus DHT (0.1 μM) for 0, 6, 12, 24, 48, 72 or 96 h before being harvested for Northern or Western blot analysis as described above.
(§6) To determine whether the ability of E2 to potentiate the effects of P4 on stromal cad-11 expression was dose-dependent, the cells were cultured in the presence of vehicle (0.1% ethanol), E2 (30 nM), P4 (1 μM) or P4 (1 μM) plus varying doses of E2 ([…]) for 96 h. 30 nM is approximately equivalent to physiological levels. The cells were then harvested for Northern and Western blot analysis using the procedures described above.
RNA Extraction using an RNAID™ kit (BIO 101, Inc.): • 1. 500 μl cell solution+500 μl of 2M sodium acetate (pH 4.0). • 2. Vortex. • 3. Add 525 μl of chloroform/isoamyl alcohol. • 4. Vortex. • 5. Incubate on ice for 15 minutes. • 6. Spin at 4° C./10,000×g for 20 minutes. • 7. Transfer top phase (RNA rich portion) to a new vial, taking care not to touch the interface and bottom organic solvent part. • 8. Add ½ volume of chloroform/isoamyl alcohol. • 9. Vortex. • 10. Spin 2 min at 4° C./10,000×g. • 11. Transfer top phase to a new tube. • 12. Add 20 μl of RNA Matrix. • 13. Vortex 30 sec. • […].

cad-11 protein = test: Western blot analysis of cad-11 protein in cultured endometrial stromal cells; format: cell-based, human; conditions: for cad-11 protein expression levels over time: Example 4C, P4 1 μM, E2 30 nM, DHT 0.1 μM, 0-96 h, P4 effect continued to increase until 86 h [sic]
Description: as §2, §3, §4, §5, §6
Cell cultures were rinsed three times with PBS and drained. The cells were incubated in 100 μl of cell lysis buffer (Tris HCL, pH 7.5 containing 0.5 NP-40, 0.5 mM CaCl2, and 1.0 mM PMSF) at 4° C. for 30 min on a rocking platform. Cell lysates were collected by scraping plate with a plastic spatula. The cell lysates were centrifuged at 10,000 xg for 20 min, and the supernatant was used in the Western Blot analyses or stored at −70° C. Aliquots from the samples were subjected to SDS polyacrylamide gel electrophoresis under reducing conditions. The stacking gels contained 5% acrylamide, and the separating gels were composed of 7.5% acrylamide. The proteins were electrophoretically transferred from the gels onto nitrocellulose membrane. The nitrocellulose blots were probed with the mouse monoclonal antibody (C11-113H) directed against human cad-11 (from ICOS Corporation, Bothell, Wash.) produced as described in Example 10 below. The Amersham ECL™ system was used to detect antibody bound to antigen.

[3] = Treatment: Progesterone Suppositories
[4] = Example 4F, cultured endometrial stromal cells
[5] = Example 4E, P4 1 μM plus E2 0.5-100 nM, 96 h
[6] = Example 4E, with P4 1 μM, 96 h, versus 30 nM E2

Row | Compound | effect of treatment on endometrial cad-11 expression [1] | cad-11 mRNA levels (cad-11 mRNA) | stromal cad-11 mRNA levels over time (cad-11 mRNA) | regulation of cad-11 mRNA expression by steroid alone (cad-11 mRNA; [4]) | cad-11 protein expression levels over time (cad-11 protein) | regulation of cad-11 protein expression by steroid alone (cad-11 protein; [4]) | other results
1 | CC(=O)[C@H]1CC[C@H]2[C@@H]3CCC4=CC(=O)CC[C@]4(C)[C@H]3CC[C@]12C [progesterone] | capable of increasing endometrial cad-11 expression | increased cad-11 mRNA levels in a dose-dependent manner | significant increase in the stromal cad-11 mRNA levels after 24 h | increased cad-11 expression | increase in cad-11 expression after 24 h | increased cad-11 expression | AFTER TREATMENT (HSCORE), cad-11 expression in the endometrium [1, 3]: 3 (positive) HSCORE (2×) and 4 (positive) HSCORE (2×) and 2 (equivocal) HSCORE and 1 (negative) HSCORE (2×) and 0 (negative) HSCORE; PREGNANCY OUTCOME [2, 3]: successful; also recorded: spontaneous; stromal cad-11 protein (cad-11 protein; Example 4B, 24 h culture, P4 0.1-1 μM): induced an increase in stromal cad-11 protein
2 | C[C@]12CCC(=O)C[C@@H]1CC[C@@H]1[C@@H]2CC[C@]2(C)[C@@H](O)CC[C@@H]12 [DHT, dihydrotestosterone] |  |  | did not significantly increase cad-11 mRNA levels |  | No significant increase in cad-11 expression levels |  | 
3 | CC(=O)[C@H]1CC[C@H]2[C@@H]3CC=C4C[C@@H](O)CC[C@]4(C)[C@H]3CC[C@]12C [Pregnenolone] |  |  |  | increased cad-11 expression |  | increased cad-11 expression | 
4 | C[C@]12CC[C@@H]3c4ccc(O)cc4CC[C@H]3[C@@H]1CC[C@@H]2O [E2, 17β-estradiol] |  | little effect on cad-11 mRNA levels | did not significantly increase cad-11 mRNA levels |  | No significant increase in cad-11 expression levels |  | potentiation of P4-mediated increase in stromal cad-11 mRNA by increasing doses of E2 (cad-11 mRNA; [5]): progressively enhanced the effects of P4; E2 concentration at which maximum cad-11 mRNA expression level was observed (cad-11 mRNA; Example 4E, with P4 1 μM, 96 h): 30 nM; enhancement of stromal cad-11 mRNA when E2 was increased to 100 nM (cad-11 mRNA; [6]): no further enhancement; potentiation of the progestin-mediated increase in cad-11 mRNA (cad-11 mRNA; [4]): potentiate this effect; potentiation of P4-mediated increase in stromal cad-11 protein by increasing doses of E2 (cad-11 protein; [5]): progressively enhanced the effects of P4; E2 concentration at which maximum cad-11 protein expression level was observed (cad-11 protein; Example 4E, with P4 1 μM, 96 h): 30 nM; enhancement of stromal cad-11 protein when E2 was increased to 100 nM (cad-11 protein; [6]): no further enhancement; potentiation of the progestin-mediated increase in cad-11 protein (cad-11 protein; [4]): potentiate this effect
5 | CC(=O)O[C@]1(C(C)=O)CC[C@H]2[C@@H]3C[C@H](C)C4=CC(=O)CC[C@]4(C)[C@H]3CC[C@@]21C [medroxyprogesterone acetate] |  |  |  | increased cad-11 expression |  | increased cad-11 expression | 
6 | CCN(CC)CCOc1ccc(C(=C(Cl)c2ccccc2)c2ccccc2)cc1 [clomiphene citrate] | capable of increasing endometrial cad-11 expression |  |  |  |  |  | AFTER TREATMENT (HSCORE), cad-11 expression in the endometrium ([1]; Treatment: Clomiphene Citrate): 4 (positive) HSCORE (2×) and 2 (equivocal) HSCORE and 1 (negative) HSCORE (2×) and 0 (negative) HSCORE and 3 (positive) HSCORE (2×); PREGNANCY OUTCOME ([2]; Treatment: Clomiphene Citrate): successful; also recorded: spontaneous
